“Also recorded” adds a separate entry of the source.
Experiments:
[1] = In vitro release of salicylate from anionic ion-exchange fiber discs in Franz diffusion cells, 37° C. (experiments 1 and 2)
Text: (§1) In the experiments below a woven cloth was used comprising a cotton textile fiber (RAIEX AK II) in which […] amine groups (-N^+ (CH3)3) had been grafted to the polysaccaride molecules. The surface weight of the cloth was 200 g/m^2. The thickness of the fiber was 30-40 μm, strength 10-20 kg s/mm^2, break stretch 15-40% and the ion exchanger capacity 3.3 mekv/g.
(§2) For release studies circular discs (diameter 25 mm) were cut from the above mentioned anionic ion-exchange fiber cloth. The fiber discs were washed by 5% NaHCO3 solution in a dropfunnel until all chloride was exchanged (tested by silver nitrate in HNO3 solution). […] The discs containing salicylate were dried in 37° C.
(§3) Drug release in vitro from the fiber discs at 37° C. was tested in Franz diffusion cells (Crown Glass Co. Inc., Somerville, N.J.) (FIG. 1). In the figure reference number 11 denotes the donor compartment, 14 receiver compartment, 15 thermostat, 16 stirring rod and 12 sample tube. […] The dissolution medium was pH 7.4 phosphate buffer saline (PBS, 143 mM, μ=0.15 (μ=ionic strength)) in experiment 1 and pH 7.4 phosphate buffer (6 mM, […]) in experiments 2 and 3. To assess the effect of the skin on drug release (experiment 3), a piece of epidermis 13 was placed between the fiber disc and buffer solution. At fixed times, samples of 250 μl were withdrawn and the drug concentration in the samples were determined by using HPLC (Beckman System Gold, Beckman Instrument, San Ramon, Calif.) with a Supelcosil LC-18-DB column (5 μm, 150×4.6 mm) (Supelco Inc., Rohm and Haab Co., Bellefonte, Pa.). The mobile phase was a binary mixture of methanol (40% v/v) and pH 7.0 phosphate buffer (60%). The detection wavelenght was 298 nm, and the flow rate of 1.0 ml/min, the retention time was 2.6 min.

[2] = In vitro release of salicylate from anionic ion-exchange fiber through skin (epidermis) in Franz diffusion cells (experiment 3); type: in vitro ADME
Text: as §1, §2, §3

[3] = pH 7.0 phosphate buffer (200 mM) containing 6.27 g/l NaCl; donor 50 μg/ml; cited from earlier work
[4] = buffered solution pH=7; 30 mg tacrine per gram of fiber
Description: An acidic fiber ion exchanger was treated with this solution, wherein the following reaction occurred:
wherein R is the back bone of the fiber ion exchanger (polypropylene).
The ion exchange performance of this fiber ion-exchanger was tested in a Franz diffusion cell (see FIG. 1) to
a buffered solution (pH=7), and t

[5] = Delivery of tacrine from acidic fiber ion exchanger to blood through skin, Franz diffusion cell (Example 2); type: in vitro ADME; settings: 30 mg tacrine per gram of fiber
[6] = phosphate buffer 6 mM, pH 7,4
Description: The cationic fiber discs were washed in 5% HCl solution in a dropfunnel until all sodium was exchanged.
Drug release from the fiber discs was tested in vitro in Franz diffusion cells (Crown Glass Co., Somerville, N.J.) at 37 C. The fiber discs were placed in the diffusion cells so that one side of the cationic ion-exchange fiber was exposed to the dissolution medium (phosphate-buffer6 mM, pH 7,4). Surface area of the fiber discs exposed to the buffer was 0,64 cm^2. […] The column used was Supelcosil LC-18-DB (5 m, 150 mm×4,6 mm), and the mobile phase included 22% of acetonitrile, 1% of triethylamine, and 77% of phosphate buffer at pH 6,5. Detection wavelength was 240 nm and flow rate was 1,0 ml per min.

[7] = Tacrine permeation across human skin in vitro, Side-by-Side diffusion chambers (Example 3); type: in vitro ADME
[8] = cited from earlier work
[9] = Tacrine (-HCl), cited from earlier work

O=C([O-])c1ccccc1O.[Na+] [Sodium salicylate, sodium salicylate]
duration of nearly constant / controlled release (in words) ([1]; anionic ion-exchange fiber, in vitro): two days; also recorded: several days
duration of initial burst ([1]; experiment 1, PBS 143 mM): < 6 h
release rate after initial burst (nearly constant) ([1]; experiment 1, PBS 143 mM, pH 7.4, after initial burst): 20-30 μg/h/cm^2
release rate in the beginning of the experiment (burst) ([1]; experiment 1, PBS 143 mM, pH 7.4, initial burst): about 350 μg/h/cm^2
duration of constant release phase ([1]; experiment 2, phosphate buffer 6 mM, μ=0.20): about 50 h
rate of salicylate release during the constant release phase ([1]; experiment 2, phosphate buffer 6 mM, μ=0.20, pH 7.4): about 60 μg/h/cm^2
release rate and released amount, phosphate buffer vs PBS (in words) ([1]; phosphate buffer (6 mM, μ=0.20) compared with PBS (143 mM, μ=0.15)): higher in phosphate buffer (6 mM, μ=0.20) than in PBS solution (143 mM, μ=0.15)
release kinetics through skin (in words) ([2]; after initial lag time): followed zero-order kinetic after initial lag time
burst effect with skin (in words) ([2]; with skin): the burst effect disappeared
lag time before steady state release ([2]; with skin): about 2 h
in vitro permeability through skin [3]: about 0.34 μg/cm^2 /h

Nc1c2c(nc3ccccc13)CCCC2 [tacrine, 9-amino-1,2,3,4-tetrahydroacridine]
amount of tacrine delivered to buffered solution (in words) [4]: pharmacologically significant amounts
amount of tacrine delivered to blood through skin (in words) [5]: pharmacologically significant amounts
tacrine release rate from the cationic ion-exchange fiber ([6]; during the first 10 hours): about 375 g/h per cm^2
duration of initial burst of tacrine release ([6]; 37 C.): 6 to 12 h
tacrine released from the fiber after initial burst ([6]; after initial burst of about 6-12 h): 50%
steady-state flux of tacrine across human skin ([7]; 5% solution, pH 7,4, in vitro): 2,95 g/h per cm^2
duration of constant drug delivery from the fiber across skin ([7]; cationic ion-exchange fiber): 120 h
delivery of tacrine across the skin from the cationic ion-exchange fiber ([7]; cationic ion-exchange fiber with 3,5% tacrine in HEPES-buffer): about 0,003 g/h per cm^2
lag-time of permeation ([7]; tacrine solution, human skin, pH 7,4): ca. 24 h
side-effects above clinical concentration (in words) ([8]; above about 5-30 ng/ml, oral): unwanted side-effects are more likely to take place
elimination half-life T1/2 ([8]; human, in vivo): 1,4-3,6 h
first-pass metabolism (in words) ([8]; in vivo): extensive first-pass metabolism
peroral bioavailability ([8]; peroral): 5-35%
solubility in water (in words) [9]: soluble in water
charge at physiological pH (in words) ([9]; physiological pH, assumed): assumed to carry a positive charge

— US6254883A, “Composition for transdermal delivery of drugs” (Novagent Oy, priority 1996, dated 2001)
